In patent publication US8778985B2, “Inhibiting amyloid-beta peptide/rage interaction at the blood-brain barrier” (The University of Rochester, priority 2006, dated 2014):

How the values were obtained:
[1] = tested on: RAGE-mediated transport of Aβ40 across the BBB; experiment: Arterial vascular brain perfusion: transport of 125I-Aβ40 across the BBB in APPsw+/− mice; assay type: in vivo; conditions: Mus musculus, read-out: inhibition of Aβ transport across the BBB
From the text: The statistical significance of differences is shown. Data are mean±s.e.m., n=3-4 per group.
An arterial vascular brain perfusion technique (LaRue et al., 2004) was used to determine whether FPS2 blocks RAGE-mediated transport of circulating ^125I-labeled Aβ40 across the BBB in 4-6 month old APPsw^+/− mice. We and others have reported that expression of RAGE in brain microvessels in these mice is increased by about 5-fold compared to the littermate controls (Deane et al., 2003; Donahue et al., 2004).

[2] = tested on: APPsw+/− mice; experiment: Thioflavin S-positive amyloid load in brain, chronic treatment of APPsw+/− mice; assay type: in vivo; conditions: 1 mg/kg per day i.p. for two months
Procedure: Amyloid load hippocampus and cortex of APPsw^+/− mice treated with vehicle (open bars) or FPS2 (closed bars). FPS2 (1 mg/kg per day), was administered intraperitoneally to mice for two months beginning at the age of 8 months. Values are means±s.e.m, n=5-6 per group.
In the chronic-treated mice, Aβ40 and Aβ42 levels in the hippocampus were reduced by about 85% and 90%, respectively, in the FPS2-treated mice compared to vehicle (FIG. 6A). Similarly, Aβ40 and Aβ42 levels in the cortex were reduced by about 70% and 80%, respectively (FIG. 6B).
Compounds were synthesized in parallel using semiautomated chemical reactions. […] Purity was assessed by reverse-phase gradient HPLC. […] After two months of treatment, (i) the cerebral blood flow response to brain activation (whisker stimulation) was measured and (ii) behavioral tests including operant learning, novel object location (NOL), and novel object recognition (NOR) were performed. After these functional tests, the mice were sacrificed and their brains analyzed for Aβ40, Aβ42, and amyloid levels. • CBF response to brain activation. The CBF response to vibrissal stimulation in anesthetized APPsw^+/− mice was measured by using laser-doppler flowmetry (Transonic Systems, BLF 21 D). […] The time exploring the novel and familiar objects was scored by hand to provide discrimination. • Human Aβ40 and Aβ42. […]

[3] = tested on: RAGE-transfected CHO cells; experiment: NF-κB activation (translocation) in RAGE-transfected CHO cells; assay type: cell-based; conditions: 1 μM Aβ40; FPS2 at 50 nM or 500 nM
[4] = tested on: RAGE-transfected CHO cells; experiment: Thiobarbituric acid reactive substance (TBARS) generation (Aβ/RAGE-induced oxidant stress) in RAGE-transfected CHO cells; assay type: cell-based; conditions: 1 μM Aβ40; FPS2 at 50 nM or 500 nM
[5] = molecular target: T1, RAGE (Homo sapiens, UniProt Q15109); experiment: 125I-Aβ40 specific binding on RAGE-transfected CHO cells at 4° C., competitive inhibition
T1 construct: expressed in transfected cells; host or cells: Chinese hamster ovary (CHO) cells
From the text: Data are mean±s.e.m., n=3 per group.
All three are tertiary amides substituted with a large, hydrophobic hydrocarbon moiety and a monosubstituted aromatic moiety. Linkage to the monosubstituted aromatic is either direct (FPS2) or via an alkyl (FPS1) or heteroaromatic (FPS3) spacer. Two of the compounds also feature a highly electron-poor substituted benzene ring (3-nitro, 4-chloro for FPS1; 3,5-dinitro for FPS2).

T1 sequence (Q15109 23-404): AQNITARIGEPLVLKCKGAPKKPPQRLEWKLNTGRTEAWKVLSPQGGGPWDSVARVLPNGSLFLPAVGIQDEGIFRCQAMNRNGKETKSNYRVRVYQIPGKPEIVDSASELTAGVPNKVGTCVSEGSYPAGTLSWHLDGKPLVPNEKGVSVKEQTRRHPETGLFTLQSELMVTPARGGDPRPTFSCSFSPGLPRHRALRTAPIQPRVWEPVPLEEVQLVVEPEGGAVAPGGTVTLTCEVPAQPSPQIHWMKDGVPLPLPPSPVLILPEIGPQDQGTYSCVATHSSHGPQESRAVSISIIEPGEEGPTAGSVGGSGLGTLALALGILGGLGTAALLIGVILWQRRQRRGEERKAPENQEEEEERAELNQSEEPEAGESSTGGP

## CC(CC(=O)NCCCN(C(=O)c1cc([N+](=O)[O-])cc([N+](=O)[O-])c1)c1ccccc1)CC(C)(C)C (stereo not shown) [FPS2, 3,5-dinitro-N-phenyl-N-[3-[(3,5,5-trimethyl-1-oxohexyl)amino]propyl]-(9Cl)-benzamide]
[1]
  inhibition at 4.8 µg/mL: 100%
[2]
  reduction of thioflavin-S positive areas (amyloid load) in the cortex compared to vehicle: about 85%
  reduction of thioflavin-S positive areas (amyloid load) in the hippocampus compared to vehicle: about 85%
[3]
  NF-κB activation: inhibited
[4]
  TBARS generation: inhibited
[5]
  Ki/Kd ratio (Ki compound's inhibitory constant, Kd Aβ-RAGE binding constant): 0.45
[5]; competitive
  inhibitory constant (Ki) of Aβ-RAGE binding: low
